Each structure is given as a SMILES string.

This test deals with growth cones of adult DRG neurons. The experiment in a line: Growth cone area/size of DRG sensory axons (DIC imaging). Format: cell-based, rat. How it is done: HDAC6 inhibition increases growth cone size of sensory axons. Given our previous work showing that HDAC6 inhibition allows axons to grow on MAG and CSPG substrates (Rivieccio et al., 2009; Butler et al., 2010), we asked how inhibition of HDAC6 alters axon growth in cultures of adult dorsal root ganglion (DRG) neurons. […] (A) Quantification of neurite length for dissociated DRGs cultured on laminin with addition of HDAC6 inhibitor TubA (10 μm) versus vehicle control (DMSO) over 1 h is shown as average fold-change relative to vehicle±SEM (n≥95 neurons across three independent experiments; NS by one-way ANOVA with Bonferroni post hoc). (B and C) show representative DIC images of distal axons from DRG neurons cultured as in A are shown (B). 1-h TubA treatment appears to increase growth cone size. Analyses of growth cone area across multiple experiments show a significant increase in area after TubA treatment (C). Values are average fold-change±SEM (n≥26 neurons over at least three culture preparations; ***, P≤0.005 by one-way ANOVA with Bonferroni post hoc; scale bar=5 μm; 40×/1.3 NA objective used). […] Prominent HDAC6 signals are seen in distal axons and growth cones (arrows) regardless of TubA exposure. […]
NF-stained cultures were used for neurite growth analyses. […] The growth cone area was measured using ImageJ software from these annotated DIC images. […]

As to `CN1CCc2c(c3ccccc3n2Cc2ccc(C(=O)NO)cc2)C1` [TubA, tubastatin], the “time after exposure at which growth cone enlargement was apparent” value (10 μM TubA, time-lapse DIC) was not above 10 min. Besides, the “growth cone size vs vehicle controls” value (10 μM, 1 h, laminin) is given as “significantly larger growth cones”.

The values above are taken from US20210330756A1, “Acetylation of Miro1” (University of South Carolina, priority 2020, published 2021).
